Assay results published in patent US9403823B2, “Protein kinase inhibitors” (ORIBASE PHARMA, priority 2012, dated 2016).
Where two headings read alike, the source gives them in different places.

Key:
[1] = target: T1, BRAF (Homo sapiens, UniProt P15056); test: In vitro kinase assay (Z'-LYTE), BRAF; type: biochemical; details: read-out: % of inhibition of the kinase compared to the control
T1 construct: purchased Invitrogen
Method: (§1) 1) In Vitro Kinase Assays (Table 10 to Table 21)
(§2) The inhibitory activity of the compounds on several kinases including BRAF, EGFR (ErbB1), EGFR (ErbB1) T790M L858R, FGFR2, KDR (VEGFR2), PDGFRA (PDGFR alpha), SRC and other was evaluated by Invitrogen using the Z′-LYTE® technology. Briefly, the Z′-LYTE® biochemical assay employs a fluorescence-based, coupled-enzyme format and is based on the differential sensitivity of phosphorylated and non-phosphorylated peptides to proteolytic cleavage. The peptide substrate is labeled with two fluorophores—one at each end—that make up a FRET pair. A ratiometric method, which calculates the ratio (the Emission Ratio) of donor emission to acceptor emission after excitation of the donor fluorophore at 400 nm, is used to quantitate reaction progress.
(§3) The compounds are screened in 1% DMSO (final) in the well. For 10 point titrations, 3-fold serial dilutions are conducted from the starting concentration. All Peptide/Kinase Mixtures are diluted to a 2× working concentration in the appropriate Kinase Buffer. All ATP Solutions are diluted to a 4× working concentration in Kinase Buffer (50 mM HEPES pH 7.5, 0.01% BRIJ-35, 10 mM MgCl2, 1 mM EGTA). ATP Km apparent is previously determined using a Z′-LYTE® assay.
(§4) Each compound was incubated at a concentration of 100 nM (excepted to test the activity against ABL and ABL T315I for which the compounds were incubated at a concentration of 10 μM) and the tables 10 to 21 summarize the results obtained showing the inhibitory power of a compound.

[2] = target: T2, EGFR (ErbB1) (Homo sapiens, UniProt P00533); test: In vitro kinase assay (Z'-LYTE), EGFR (ErbB1); type: biochemical; details: read-out: % of inhibition of the kinase compared to the control
T2 construct: purchased Invitrogen
Method: as §1, §2, §3, §4

[3] = target: T3, FGFR2 (Homo sapiens, UniProt P21802); test: In vitro kinase assay (Z'-LYTE), FGFR2; type: biochemical; details: read-out: % of inhibition of the kinase compared to the control
T3 construct: purchased Invitrogen
Method: as §1, §2, §3, §4

[4] = target: T4, KDR (VEGFR2) (Homo sapiens, UniProt P35968); test: In vitro kinase assay (Z'-LYTE), KDR (VEGFR2); type: biochemical; details: read-out: % of inhibition of the kinase compared to the control
T4 construct: purchased Invitrogen
Method: as §1, §2, §3, §4

[5] = target: T5, PDGFRA (PDGFR alpha) (Homo sapiens, UniProt P16234); test: In vitro kinase assay (Z'-LYTE), PDGFRA; type: biochemical; details: read-out: % of inhibition of the kinase compared to the control
T5 construct: purchased Invitrogen
Method: as §1, §2, §3, §4

[6] = target: T6, SRC (Homo sapiens, UniProt P12931); test: In vitro kinase assay (Z'-LYTE), SRC; type: biochemical; details: read-out: % of inhibition of the kinase compared to the control
T6 construct: purchased Invitrogen
Method: as §1, §2, §3, §4

[7] = system: A549 cell line; test: In vitro cell proliferation assay (MTT), A549; type: cell-based; details: Homo sapiens, read-out: EC50, anti-proliferative activity
Method: (§5) 2) In Vitro Cell Proliferation Assays (Table 22 to Table 35)
(§6) Cancer cell lines (5×10^3 cells per well) or HUVEC (1×10^4 cells per well) or HRMEC (1×10^4 cells per well) were distributed in 96-well plates and incubating in duplicate with escalating concentrations (10 nM to 3 μM) of compounds for 72 hr. Cell proliferation was measured using MTT (3[4,5-dimethylthiazol-2-yl]-2,5-diphenyltetrazolium bromide).

[8] = system: HepG2 cell line; test: In vitro cell proliferation assay (MTT), HepG2; type: cell-based; details: Homo sapiens, read-out: EC50, anti-proliferative activity
Method: as §5, §6

[9] = system: HUVEC; test: In vitro cell proliferation assay (MTT), HUVEC; type: cell-based; details: Homo sapiens, read-out: EC50, anti-proliferative activity
Method: as §5, §6

[10] = system: MDA-MB-231 cell line; test: In vitro cell proliferation assay (MTT), MDA-MB-231; type: cell-based; details: Homo sapiens, read-out: EC50, anti-proliferative activity
Method: as §5, §6

[11] = system: HeLa cell line; test: In vitro cell proliferation assay (MTT), HeLa; type: cell-based; details: Homo sapiens, 72 hr, MTT, read-out: EC50, anti-proliferative activity
Method: as §5, §6

[12] = system: HuCCT1 cell line; test: In vitro cell proliferation assay (MTT), HuCCT1; type: cell-based; details: Homo sapiens, HuCCT-1; HuCCT1, 72 hr, MTT; read-out: EC50, anti-proliferative activity
Method: as §5, §6

[13] = system: HuH6 Clone 5 cell line; test: In vitro cell proliferation assay (MTT), HuH6 Clone 5; type: cell-based; details: HUH-6-clone5; HuH6 Clone 5, 72 hr, MTT; read-out: EC50, anti-proliferative activity
Method: as §5, §6

[14] = system: HuH7 cell line; test: In vitro cell proliferation assay (MTT), HuH7; type: cell-based; details: Homo sapiens, Huh-7; HuH7, 72 hr, MTT; read-out: EC50, anti-proliferative activity
Method: as §5, §6

T3 sequence (P21802 22-821): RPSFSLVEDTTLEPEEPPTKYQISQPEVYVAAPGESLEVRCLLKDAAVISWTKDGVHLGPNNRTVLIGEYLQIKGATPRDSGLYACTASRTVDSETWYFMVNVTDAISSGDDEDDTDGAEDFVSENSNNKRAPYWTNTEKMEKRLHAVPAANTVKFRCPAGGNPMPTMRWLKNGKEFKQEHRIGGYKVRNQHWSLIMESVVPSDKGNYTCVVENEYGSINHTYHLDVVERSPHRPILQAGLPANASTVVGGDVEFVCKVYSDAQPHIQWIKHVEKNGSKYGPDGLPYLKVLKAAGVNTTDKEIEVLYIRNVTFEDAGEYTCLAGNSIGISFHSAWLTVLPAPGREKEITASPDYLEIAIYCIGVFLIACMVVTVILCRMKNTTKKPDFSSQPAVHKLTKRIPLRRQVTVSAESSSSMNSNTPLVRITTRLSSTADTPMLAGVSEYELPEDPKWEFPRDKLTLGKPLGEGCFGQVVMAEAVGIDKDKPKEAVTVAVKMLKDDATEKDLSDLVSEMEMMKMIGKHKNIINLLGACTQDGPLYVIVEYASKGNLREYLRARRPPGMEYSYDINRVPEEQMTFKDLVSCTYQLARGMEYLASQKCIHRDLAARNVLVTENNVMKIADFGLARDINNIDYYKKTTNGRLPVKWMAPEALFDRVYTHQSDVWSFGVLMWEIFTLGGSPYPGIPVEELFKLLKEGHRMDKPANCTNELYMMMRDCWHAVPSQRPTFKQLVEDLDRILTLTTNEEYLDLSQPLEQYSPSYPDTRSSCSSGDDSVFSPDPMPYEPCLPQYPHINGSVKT
T5 sequence (P16234 24-1089): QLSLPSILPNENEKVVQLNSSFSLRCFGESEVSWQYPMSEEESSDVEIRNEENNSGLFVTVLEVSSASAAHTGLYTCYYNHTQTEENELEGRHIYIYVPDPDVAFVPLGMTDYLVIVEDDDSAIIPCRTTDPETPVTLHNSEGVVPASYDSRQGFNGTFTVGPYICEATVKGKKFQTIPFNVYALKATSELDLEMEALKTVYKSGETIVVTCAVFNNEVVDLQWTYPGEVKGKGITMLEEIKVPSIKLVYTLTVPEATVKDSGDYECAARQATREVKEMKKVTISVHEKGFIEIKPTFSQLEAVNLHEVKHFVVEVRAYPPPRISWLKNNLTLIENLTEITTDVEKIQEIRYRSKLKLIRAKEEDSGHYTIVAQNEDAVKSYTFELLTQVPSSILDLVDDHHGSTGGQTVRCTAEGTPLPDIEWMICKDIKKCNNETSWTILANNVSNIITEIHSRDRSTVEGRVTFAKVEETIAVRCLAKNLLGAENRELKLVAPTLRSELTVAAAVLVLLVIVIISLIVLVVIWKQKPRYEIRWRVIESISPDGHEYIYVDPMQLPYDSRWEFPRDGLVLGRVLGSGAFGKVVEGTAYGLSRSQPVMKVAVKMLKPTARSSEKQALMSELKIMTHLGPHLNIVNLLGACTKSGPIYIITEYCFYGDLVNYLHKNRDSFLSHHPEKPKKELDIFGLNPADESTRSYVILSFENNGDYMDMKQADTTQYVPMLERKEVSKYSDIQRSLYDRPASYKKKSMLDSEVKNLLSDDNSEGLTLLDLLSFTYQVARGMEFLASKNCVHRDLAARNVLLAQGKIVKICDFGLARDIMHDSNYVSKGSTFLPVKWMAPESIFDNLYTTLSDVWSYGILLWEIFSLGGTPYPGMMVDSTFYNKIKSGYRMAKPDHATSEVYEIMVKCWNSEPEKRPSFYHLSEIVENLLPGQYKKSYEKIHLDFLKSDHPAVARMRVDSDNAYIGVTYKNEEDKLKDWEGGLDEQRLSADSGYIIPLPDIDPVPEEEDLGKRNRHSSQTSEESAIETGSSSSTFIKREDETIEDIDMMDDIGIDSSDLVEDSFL
T2 sequence (P00533 25-1210): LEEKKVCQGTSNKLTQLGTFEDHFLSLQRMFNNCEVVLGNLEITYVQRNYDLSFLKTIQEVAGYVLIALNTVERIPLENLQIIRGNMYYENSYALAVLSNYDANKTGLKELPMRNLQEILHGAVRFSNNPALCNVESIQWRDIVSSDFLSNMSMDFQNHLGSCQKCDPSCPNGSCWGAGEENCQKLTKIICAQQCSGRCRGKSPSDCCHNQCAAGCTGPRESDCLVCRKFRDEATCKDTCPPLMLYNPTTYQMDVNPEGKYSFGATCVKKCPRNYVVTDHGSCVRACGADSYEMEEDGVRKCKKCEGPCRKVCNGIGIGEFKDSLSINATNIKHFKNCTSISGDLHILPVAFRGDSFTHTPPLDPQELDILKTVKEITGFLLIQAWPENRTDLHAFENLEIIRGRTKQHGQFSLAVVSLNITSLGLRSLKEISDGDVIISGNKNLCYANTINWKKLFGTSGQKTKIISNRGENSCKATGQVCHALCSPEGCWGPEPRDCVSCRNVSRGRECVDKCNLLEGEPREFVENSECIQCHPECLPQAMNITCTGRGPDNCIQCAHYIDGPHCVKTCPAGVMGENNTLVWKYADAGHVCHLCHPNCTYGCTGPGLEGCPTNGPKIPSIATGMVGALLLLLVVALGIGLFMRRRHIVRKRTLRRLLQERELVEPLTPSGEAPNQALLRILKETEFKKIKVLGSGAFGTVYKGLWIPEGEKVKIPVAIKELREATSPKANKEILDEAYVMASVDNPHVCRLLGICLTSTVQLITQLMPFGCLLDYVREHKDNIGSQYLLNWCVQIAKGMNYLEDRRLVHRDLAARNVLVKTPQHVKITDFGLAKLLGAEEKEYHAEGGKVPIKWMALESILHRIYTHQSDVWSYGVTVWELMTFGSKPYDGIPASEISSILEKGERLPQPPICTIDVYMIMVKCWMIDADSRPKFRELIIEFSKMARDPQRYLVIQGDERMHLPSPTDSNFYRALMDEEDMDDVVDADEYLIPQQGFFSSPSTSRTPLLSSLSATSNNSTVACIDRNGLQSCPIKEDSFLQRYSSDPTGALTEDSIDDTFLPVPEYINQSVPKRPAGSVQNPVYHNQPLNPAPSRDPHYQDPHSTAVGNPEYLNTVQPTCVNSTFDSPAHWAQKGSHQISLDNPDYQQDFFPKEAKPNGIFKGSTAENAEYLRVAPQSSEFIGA
T6 sequence (P12931 whole entry): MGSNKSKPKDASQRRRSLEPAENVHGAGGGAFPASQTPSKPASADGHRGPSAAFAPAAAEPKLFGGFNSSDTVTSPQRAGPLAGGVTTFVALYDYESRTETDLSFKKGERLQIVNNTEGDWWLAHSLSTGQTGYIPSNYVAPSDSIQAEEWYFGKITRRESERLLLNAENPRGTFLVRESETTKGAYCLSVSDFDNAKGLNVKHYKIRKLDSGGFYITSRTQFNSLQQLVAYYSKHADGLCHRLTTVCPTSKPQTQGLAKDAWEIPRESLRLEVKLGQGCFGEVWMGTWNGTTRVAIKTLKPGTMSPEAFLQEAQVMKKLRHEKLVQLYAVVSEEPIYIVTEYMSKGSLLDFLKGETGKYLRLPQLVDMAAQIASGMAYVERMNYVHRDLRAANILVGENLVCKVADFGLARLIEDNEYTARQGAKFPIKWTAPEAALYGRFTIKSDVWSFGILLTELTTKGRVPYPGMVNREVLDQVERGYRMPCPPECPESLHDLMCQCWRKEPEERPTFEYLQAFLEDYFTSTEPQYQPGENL
T1 sequence (P15056 whole entry): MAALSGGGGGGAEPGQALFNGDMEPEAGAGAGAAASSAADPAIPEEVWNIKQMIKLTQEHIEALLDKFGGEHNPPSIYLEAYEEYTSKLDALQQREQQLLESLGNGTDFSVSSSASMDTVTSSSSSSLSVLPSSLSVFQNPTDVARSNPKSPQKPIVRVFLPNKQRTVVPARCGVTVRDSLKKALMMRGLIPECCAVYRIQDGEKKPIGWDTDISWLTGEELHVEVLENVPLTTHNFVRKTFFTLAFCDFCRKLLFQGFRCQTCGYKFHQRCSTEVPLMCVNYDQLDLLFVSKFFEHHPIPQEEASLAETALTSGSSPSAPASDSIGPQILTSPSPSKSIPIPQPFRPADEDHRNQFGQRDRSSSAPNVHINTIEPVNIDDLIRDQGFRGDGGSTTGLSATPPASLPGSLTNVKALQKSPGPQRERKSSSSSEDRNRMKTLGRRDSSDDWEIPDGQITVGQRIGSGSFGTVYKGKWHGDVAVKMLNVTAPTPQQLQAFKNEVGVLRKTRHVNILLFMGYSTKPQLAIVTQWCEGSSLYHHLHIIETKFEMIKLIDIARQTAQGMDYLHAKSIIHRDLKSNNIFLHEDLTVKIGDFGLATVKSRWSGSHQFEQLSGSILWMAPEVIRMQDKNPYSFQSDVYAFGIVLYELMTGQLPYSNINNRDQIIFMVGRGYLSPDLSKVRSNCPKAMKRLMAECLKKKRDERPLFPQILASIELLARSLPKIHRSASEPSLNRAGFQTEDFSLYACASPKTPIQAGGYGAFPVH

| Compound | inhibition at 0.1 µM [1] [%] | inhibition at 0.1 µM [2] [%] | inhibition at 0.1 µM [3] [%] | inhibition at 0.1 µM [4] [%] | inhibition at 0.1 µM [5] [%] | inhibition at 0.1 µM [6] [%] | EC50 ([7]; A549, 72 hr, MTT) [µM] | EC50 ([8]; HepG2, 72 hr, MTT) [µM] | EC50 ([10]; MDA-MB-231, 72 hr, MTT) [µM] | EC50 [11] [µM] | EC50 ([8]; HepG2, 72 h) [µM] | EC50 ([7]; A549, 72 h) [µM] | EC50 ([10]; MDA-MB-231, 72 h) [µM] | EC50 [13] [µM] | EC50 [14] [µM] | EC50 ([9]; 72 hr, MTT) [µM] | EC50 ([9]; 72 h) [µM] | EC50 [12] [µM] |
| --- | --- | --- | --- | --- | --- | --- | --- | --- | --- | --- | --- | --- | --- | --- | --- | --- | --- | --- |
| COc1ccccc1C(=O)Nc1ccc(F)c(CNc2cnc3[nH]c(C(C)=O)cc3c2)c1 [OR1063, N-{3-[(2-Acetyl-1H-pyrrolo[2,3-b]pyridin-5-ylamino)-methyl]-4-fluoro-phenyl}-2-methoxy-benzamide] | – | – | – | – | – | – | ≥ 1 | ≥ 1 | ≥ 1 | ≥ 1 | – | – | – | – | – | ≥ 1 | – | – |
| CCCCCCNC(=O)c1cc2cc(NCc3cc(NC(=O)c4ccc(CN5CCN(C)CC5)c(C(F)(F)F)c4)ccc3C)cnc2[nH]1 [OR1069, 5-{2-Methyl-5-[4-(4-methyl-piperazin-1-ylmethyl)-3-trifluoromethyl-benzoylamino]-benzylamino}-1H-pyrrolo[2,3-b]pyridine-2-carboxylic acid hexylamide] | – | – | – | – | – | – | – | – | – | ≥ 1 | 0.1 to 1 | – | 0.1 to 1 | – | – | – | 0.1 to 1 | – |
| CNC(=O)c1cc(Oc2ccc(NC(=O)Nc3ccc(Cl)c(C(F)(F)F)c3)cc2)ccn1 [Sorafenib, reference compound] | – | – | – | – | – | – | – | 1 to 3 | – | – | – | – | – | 1 to 3 | 1 to 3 | – | – | 1 to 3 |

Second part, led by results:

| inhibition at 0.1 µM [1] [%] | inhibition at 0.1 µM [2] [%] | inhibition at 0.1 µM [3] [%] | inhibition at 0.1 µM [4] [%] | inhibition at 0.1 µM [5] [%] | inhibition at 0.1 µM [6] [%] | EC50 ([7]; A549, 72 hr, MTT) [µM] | EC50 ([8]; HepG2, 72 hr, MTT) [µM] | EC50 ([10]; MDA-MB-231, 72 hr, MTT) [µM] | EC50 [11] [µM] | EC50 ([8]; HepG2, 72 h) [µM] | EC50 ([7]; A549, 72 h) [µM] | EC50 ([10]; MDA-MB-231, 72 h) [µM] | EC50 [13] [µM] | EC50 [14] [µM] | Compound | EC50 ([9]; 72 hr, MTT) [µM] | EC50 ([9]; 72 h) [µM] | EC50 [12] [µM] |
| --- | --- | --- | --- | --- | --- | --- | --- | --- | --- | --- | --- | --- | --- | --- | --- | --- | --- | --- |
| < 50 | < 50 | < 50 | < 50 | < 50 | < 50 | ≥ 1 | ≥ 1 | ≥ 1 | ≥ 1 | – | – | – | – | – | CC(=O)c1cc2cc(NC(=O)c3cccc(CNC(=S)c4cccc(C(F)(F)F)c4)c3)cnc2[nH]1 [OR1012, N-[3-(2-Acetyl-1H-pyrrolo[2,3-b]pyridin-5-ylcarbamoyl)-benzyl]-3-trifluoromethyl-thiobenzamide] | ≥ 1 | – | – |
| < 50 | < 50 | < 50 | < 50 | < 50 | < 50 | ≥ 1 | – | ≥ 1 | ≥ 1 | 0.1 to 1 | – | – | – | – | CC(=O)c1cc2cc(NCc3cc(NC(=S)Nc4cccc(C(F)(F)F)c4)ccc3C)cnc2[nH]1 [OR1015, 1-{3-[(2-Acetyl-1H-pyrrolo[2,3-b]pyridin-5-ylamino)-methyl]-4-methyl-phenyl}-3-(3-trifluoromethyl-phenyl)-thiourea] | – | 0.1 to 1 | – |
| – | – | – | – | – | – | ≥ 1 | ≥ 1 | ≥ 1 | ≥ 1 | – | – | – | – | – | CC(=O)c1cc2cc(NCc3cc(NC(=O)C4CCC(C(F)(F)F)CC4)ccc3F)cnc2[nH]1 (stereo not drawn) [OR1058, 4-Trifluoromethyl-cyclohexanecarboxylic acid {3-[(2-acetyl-1H-pyrrolo[2,3-b]pyridin-5-ylamino)-methyl]-4-fluoro-phenyl}-amide] | ≥ 1 | – | – |
| – | – | – | – | – | – | – | – | – | ≥ 1 | ≤ 0.1 | 0.1 to 1 | 0.1 to 1 | – | – | CC(=O)c1cc2cc(NCc3cc(NC(=O)c4cc(N5CCN(C)CC5)cc(C(F)(F)F)c4)ccc3F)cnc2[nH]1 [OR1060, N-{3-[(2-Acetyl-1H-pyrrolo[2,3-b]pyridin-5-ylamino)-methyl]-4-fluoro-phenyl}-3-(4-methyl-piperazin-1-yl)-5-trifluoromethyl-benzamide] | – | 0.1 to 1 | – |
